In assay [1] the test system is human CD8^+ T cells. As to the kind of experiment: Human CD3+ T cells from PBMC stimulated with aCD3/aCD28 beads in presence of UA. In kind it is cell-based. Also noted: frequency of human TSCM cells (CD45RA+CCR7hiCD62L+CD95+CD8+): dose or concentration left out as unconfirmed. The procedure:
(FIG. 5L) UA induces PGC-1α expression in stimulated CD8+ cells. PGC-1α MFI at 48 h upon stimulation, as assessed by intracellular staining, is shown (n=3). One of two independent experiments are shown. Data are mean ± SD, statistical analysis was performed by two-sided t-test (p**<0.01). (FIG. 5M) Mitochondrial content of TIL CD8+ cells harvested from APTK-carrying mice, fed UA or control diet as depicted in FIG. 1J. Assessed by Mitotracker Red staining. Data are mean ± SD, *p < 0.05 by two-sided t-test. (FIG. 5N) Mitophagy and subsequent PGAM5 release drive PGC-1α upregulation. PGC-1α expression of CD8+ cells derived from Pink1^-/- KO mice upon 48 h stimulation in vitro in the presence of UA or DMSO control (n=4). Data are mean ± SD, statistical analysis was performed by two-sided t-test. Depicts one of two independent experiments. (FIG. 5O) Mitophagy and subsequent PGAM5 release drive PGC-1 α upregulation. PGC-1α expression of CD8+ cells derived from PGAM5^-^/- mice upon 48 h stimulation in vitro in the presence of UA or DMSO control (n=4). Data are mean ± SD, statistical analysis was performed by two-sided t-test. […] Cells were co-treated with DMSO, UA and an inhibitor of PGC-1α (PGC-1αi) as indicated (n=4). One of two independent experiments are shown. Data are mean ± SD, statistical analysis was performed by two-sided t-test (p**<0.01; ***p <0.001; n.s. not significant).(FIG. 5Q) Urolithin A induces TSCM in human CD8+ cells: Schematic overview. PBMC were isolated from healthy donors, prior to T cell purification and in vitro stimulation via aCD3/aCD28 stimulation beads at the presence of UA or DMSO control. (FIG. 5R) Quantification of human TSCM (n=4). Representative data of one out of five donors with the same result are shown. (FIG. 5S) Quantification of TMRM^loCD8+ human cells 48 h after activation in the presence of UA or DMSO control (n=4). (FIG. 5T) TCF1 expression in human CD8 cells as assessed by flow cytometry (n=4). All data are mean ± SD; statistical analysis was performed by two-sided t-test (*p < 0.05; p**<0.01; p****0.0001).
(FIG. 6A) Human PBMC were isolated from healthy donors, T cells were purified and stimulated ex-vivo with αCD3/αCD28 in the presence of UA ([…]) or DMSO control.
(FIG. 6B) Frequency of human TSCM 48 h after stimulation as shown in (A). Data are mean ± SD, n=4, ****p<0.0001 by one-way ANOVA followed by Tukey’s multiple comparison test.
(FIG. 6C) Quantification of human TMRM^loCD8^+ T cells 48 h after stimulation in the presence of UA or DMSO control .Data are mean ± SD, n=4,**p<0.01 by two-sided t test.
(FIG. 6D) TCF1 expression in human CD8+ T cells 48 h after stimulation in the presence of UA or DMSO control. Data are mean ± SD, n=4,*p<0.05by two-sided t test. […]

Assay [2] relates to CEA-expressing human CRC organoids. Description: Killing of CEA-expressing CRC organoids by CEA-specific CAR T cells. In kind it is cell-based. The note with it: 72 h co-culture.
For assay [3], the system named is muscle function. The following applies: urolithin A-high diet, cited from earlier work.

Turning to `O=c1oc2cc(O)ccc2c2ccc(O)cc12` [Urolithin A], the “CD95hiCD62L+ cells within the CD45RA+CCR7hiCD8+ compartment” value in assay [1] is “dose-dependent increase”. Also, the “TCF1 expression (intracellular staining)” value in assay [1] (48 h) is on record as “increased TCF1 expression”. Besides, in assay [1] (48 h, five out of five individual donors), the “frequency of human TSCM cells (CD45RA+CCR7hiCD62L+CD95+CD8+)” value is given as “increased the frequency”. In addition, the mitochondrial membrane potential result in assay [1] (after 48 hours) is listed as “decreased mitochondrial membrane potential”. Moreover, in assay [2], the “killing efficacy of CEA-expressing human CRC organoids” value is given as “comparable killing efficacy”. Also, in assay [3] (mice with Duchenne muscular dystrophy), the “recovery of muscle function” value is reported as “recovery of muscle function”. Moreover, in assay [3], the muscle function result is “superior muscle function”.

The values above are taken from patent publication US20230277669A1, “USES OF UROLITHINS” (Amazentis SA, priority 2022, published 2023).
